The text below walks through data of patent US10414739B2, “Compounds as inhibitors of the YAP/TAZ-TEAD interaction and their use in the treatment of malignant mesothelioma” (INVENTIVA, priority 2015, dated 2019).

The target in series [1] is T1, YAP-TEAD interaction (human YAP2-His6 (50-114) / human TEAD1-GST (209-426)) (Homo sapiens, UniProt P28347).
T1 construct: GST-TEAD1 (209-426) produced in E. coli; made in house; host or cells: E. coli
Description: YAP-TEAD AlphaLISA assay. The series is classed as binding. The settings on record: for Emax: 2 h, maximal % inhibition, read-out: Max Act.; for Emax / IC50: YAP-TEAD AlphaLISA; for IC50: 2 h equilibration at room temperature. The protocol: YAP-TEAD AlphaLISA Assay for IC50 Value Determination.
YAP-TEAD binding and inhibition was assessed by monitoring the engagement of YAP2 peptide (human YAP2-His6 (50-114) produced in E. coli) with TEAD (human TEAD1-GST (GST-TEAD1 (209-426) produced in E. coli) using the AlphaLisa technology (Perkin-Elmer). Specifically, in a 384 well (Axygen) 5 μl of compounds were dispensed in 100% DMSO following a semi log serial dilution, with a top concentration of […] (10 concentrations). A ‘3 partners solution’ was prepared by mixing AlphaScreen Glutathione Donor beads 15 μg/ml (PerkinElmer), Anti-6×His AlphaLisA Acceptor beads 15 μg/ml (PerkinElmer) and Human YAP2 9 nM in 100 mM NaCl, 25 mM Hepes, 0.1% BSA, 0.5% NoNidet®P40 buffer. In the 384 assay plate (Proxiplate, Perkin-Elmer)) 2 μl of compound at each concentration, 6 μl of buffer, 6 μl of hTEAD1-GST 9 nM and 6 μl of ‘3 partner solution’ were mixed. After 2 h equilibration at room temperature in the dark the plates were read on an Envision instrument (Excitation @ 680 nm/Emission @ 570 nm, Perkin Elmer).
Results were expressed as % inhibition=100×((HighControl−Cpd)/(HighControl−LowControl)), were High control is the maximum response obtained with all components and Low control is the basal response obtained with all components without GST-Tead1.
Cpd is the response obtained for test compounds.
IC50 (half maximal inhibitory concentration) was determined by fitting the concentration response curves using a 3-parameter curve fit equation and determining concentration corresponding to 50% inhibition.
In general terms: Alpha assays give light when donor and acceptor beads are brought close together.

The subject of series [2] is YAP-TEAD interaction in co-transfected HEK293 cells. Description: Cell-based TEAD-GAL4 transactivation assay (luciferase reporter). The settings on record: Homo sapiens, HEK293 co-transfected with TEAD1-Gal4, YAP mutant (S127A, S397A) and reporter, 24 h. The protocol:
Effect of Compounds on the Cell-Based TEAD-GAL4 Transactivation Assay
(§1) To identify inhibitors of YAP-TEAD interaction, a transient transactivation assays was carried out into HEK293 cell line (HEK293 GripTite™ 293 MSR (Invitrogen R795-07)) using plasmids containing the full length TEAD1 sequences, the full length YAP mutant (S127A, S397A) and a luciferase gene reporter. All expression constructs were performed into pSG5 backbone plasmid in which the SV40 promoter was replaced by the CMV promoter. The TEAD1 construct was prepared by cloning the full length human TEAD1 cDNA in fusion with the Gal4 DNA Binding Domain (AA 1-148) into pSG5_CMV to create the TEAD1(FL)_hum_pSG5Gal4_CMV. The full length YAP mutant (S127A, S397A) was also cloned into pSG5_CMV to create the YAP(FL)_hum_pSG5_mutS127A_S397A_CMV. The reporter plasmid GAL4(5×RE)_TK(−105/+56)_pGL3-Basic contains 5 copies of the GAL4 responsive element (5′-TCGGAGGACAGTACTCC-3′) upstream of the thymidine kinase (TK) promoter (−105/+56) inserted in a pGL3-Basic vector. To evaluate the selectivity of our compounds in blocking the YAP-TEAD interaction, a counter-screening protein-protein interaction transactivation assays was also established. Briefly, two other expression plasmids, the pBD-P53 which express the P53 (AA 72-390) in fusion with Gal4 and the pAD-SV40T which express the SV40 large T antigen (AA 84-708,AgT), were created. […] Twenty-four hours later, the luciferase activity was determined after addition of 100 μl of Steady Glo™ luciferase assay system (Promega E2550) according to the manufacturer's directions. Luciferase activity in cell extracts is measured by reading luminescence using the Envision device.
The cellular response was determined by fitting the concentration response curves using a 3-parameter curve fit equation and determining the concentration that inhibited the luciferase activity by 50%.

Series [3] relates to P53 / SV40 large T antigen (AgT) interaction in HEK293 cells. As to the kind of experiment: Counter-screening protein-protein interaction transactivation assay (P53+AgT). Format: cell-based. Conditions: HEK293, same conditions as TEAD-GAL4 assay. The protocol: as §1, with “created. HEK293 cells were seeded at 5×10^4 cells/well in 96 well plates (assay plates) in DMEM medium containing 4.5 g/L D-glucose, 10% high inactivated (HI) fetal bovine serum 1% Glutamax, 1% non-essential amino acid and 1% sodium pyruvate and 0.5% penicillin/streptomycin 37° C. in a humidified atmosphere of 8% CO2.” for “created.”

Series [4] relates to NCI-H2052 mesothelioma cell line. As to the kind of experiment: Inhibition of malignant mesothelioma tumor cell growth (EdU proliferation). The series is classed as cell-based. Conditions: NCI-H2052 (NF2 mutated), 1% serum. As for the experimental part: Inhibition of Malignant Mesothelioma Tumor Cell Growth
The tumor cell growth inhibitory activity of the YAP-TEAD interaction inhibitors was evaluated in NCI-H2052 mesothelioma cell line harboring a NF2 mutation. This cell line was selected based on its mutational status and the ability of a siRNA directed against YAP, TAZ or TEAD1-4 to inhibit cell proliferation. The nuclear localization of YAP at confluence was also taken into account. Based on these observations we were able to classify several “YAP dependent cells” where YAP is clearly nuclear and in which a cell growth inhibition is observed by using siRNA (NCI-H2052, SKOV-3, ACHN, A549) and the “YAP independent cells” where YAP is preferentially located in the cytoplasm and in which no inhibition of cell growth is observed by using a siRNA (SW620, Met-5a). […] After one day growth in the starvation medium, cells were incubated with compounds. The starting concentration was 30 μM and serial dilutions in DMSO and medium were performed until […] to achieve a final DMSO concentration of 0.5%. The cells were then allowed to grow for 3 days, and then, EdU (Invitrogen, Molecular Probe) was added in each well at a final concentration of 10 μM and the cells were returned to the incubator for additional 24 h. Starvation medium was removed and 100 μl of PFA 4% containing Hoechst dye was adding in each well to fix the cells. Plates were then incubated at room temperature for 15 minutes, washed twice with PBS and the cells were permeabilized by adding 100 μl per well of triton-100 containing 0.3% BSA. […] Image acquisition was performed using the ImageXpress Micro and analysed using the MetaXpress software (Molecular Device). Results were expressed as a percent of inhibition (%) of the cell proliferation values obtained with 0.5% DMSO treatment alone. The cellular response was determined by fitting the concentration response curves using a 3 parameter curve fit equation and determining the concentration that inhibited cell growth between 50% and 100%.

Another series has as its system SW620 cell line. Description: Cell proliferation in YAP-independent cell line (EdU). Format: cell-based. The protocol: The tumor cell growth inhibitory activity of the YAP-TEAD interaction inhibitors was evaluated in NCI-H2052 mesothelioma cell line harboring a NF2 mutation. This cell line was selected based on its mutational status and the ability of a siRNA directed against YAP, TAZ or TEAD1-4 to inhibit cell proliferation. The nuclear localization of YAP at confluence was also taken into account. Based on these observations we were able to classify several “YAP dependent cells” where YAP is clearly nuclear and in which a cell growth inhibition is observed by using siRNA (NCI-H2052, SKOV-3, ACHN, A549) and the “YAP independent cells” where YAP is preferentially located in the cytoplasm and in which no inhibition of cell growth is observed by using a siRNA (SW620, Met-5a). […] After one day growth in the starvation medium, cells were incubated with compounds. The starting concentration was 30 μM and serial dilutions in DMSO and medium were performed until […] to achieve a final DMSO concentration of 0.5%. The cells were then allowed to grow for 3 days, and then, EdU (Invitrogen, Molecular Probe) was added in each well at a final concentration of 10 μM and the cells were returned to the incubator for additional 24 h. Starvation medium was removed and 100 μl of PFA 4% containing Hoechst dye was adding in each well to fix the cells. Plates were then incubated at room temperature for 15 minutes, washed twice with PBS and the cells were permeabilized by adding 100 μl per well of triton-100 containing 0.3% BSA. After 20 minutes cells were washed with PBS and the EdU detection was performed according to the instructions of the manufacturer. Image acquisition was performed using the ImageXpress Micro and analysed using the MetaXpress software (Molecular Device). Results were expressed as a percent of inhibition (%) of the cell proliferation values obtained with 0.5% DMSO treatment alone. The cellular response was determined by fitting the concentration response curves using a 3 parameter curve fit equation and determining the concentration that inhibited cell growth between 50% and 100%.

T1 sequence (P28347 209-426): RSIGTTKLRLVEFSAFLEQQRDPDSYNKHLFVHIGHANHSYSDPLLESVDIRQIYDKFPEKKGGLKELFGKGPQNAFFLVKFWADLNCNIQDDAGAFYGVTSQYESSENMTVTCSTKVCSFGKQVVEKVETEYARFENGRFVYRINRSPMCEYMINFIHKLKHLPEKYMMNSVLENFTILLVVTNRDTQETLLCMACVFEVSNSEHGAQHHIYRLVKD

As usually defined, the IC50 is the concentration that inhibits the measured activity by half. A higher IC50 goes with weaker potency in that assay. Usually inhibition stands for the share of the control response that was lost under treatment. A word on the melting point: it is the temperature, or range, at which the solid turns liquid. Consider `COc1cc(/C=N/N(C)C2=NS(=O)(=O)c3ccccc32)ccc1O` [Example 1, 4-[(E)-[(1,1-dioxo-1,2-benzothiazol-3-yl)-methyl-hydrazono]methyl]-2-methoxy-phenol], for which the melting point worked out at 218 °C. For the same molecule, in series [1], the Emax turned out to be 92% and half-maximal inhibition (IC50) was put at 886 nM. The same molecule had an inhibition at 0.886 µM in series [1] (at 0.886 μM (so in the source)) of 92%. The inhibition at 30 µM in series [2] lay within 50 to 75%. Besides, in series [3], the “inhibitory effect in counter screening assay (P53+AgT)” value is given as “no inhibitory effect was observed”. Further, the “inhibition of cell proliferation” value in series [4] is reported as “inhibited”. For the same molecule, in the series with SW620 cell line, the “effect on cell proliferation” value was “without showing any effect”.
On to `COCCN(/N=C/c1ccc(O)c(OC)c1)C1=NS(=O)(=O)c2ccccc21` [Example 7, 4-[(E)-[(1,1-dioxo-1,2-benzothiazol-3-yl)-(2-methoxyethyl)hydrazono]-methyl]-2-methoxy-phenol], for which, in series [1], the Emax is 94% and the IC50 turned out to be 4580 nM. For the same molecule, the inhibition at 30 µM in series [2] lay within 50 to 75%. For the same molecule, the “inhibitory effect in counter screening assay (P53+AgT)” value in series [3] is “no inhibitory effect was observed”. Besides, in series [4], the “inhibition of cell proliferation” value is reported as “inhibited”. Moreover, in the series with SW620 cell line, the “effect on cell proliferation” value is “without showing any effect”.
